The target in this assay is T1, His6-WbbZ (WbbZ pyruvyltransferase) (Klebsiella pneumoniae, UniProt A0A0C4KUT2).
T1 construct: His6-tagged, expressed in E. coli TOP10, Ni-NTA purified
Kind of assay: PAGE of reaction products; MS and NMR. The following applies: pyruvyl donor, 10 mM PEP; acceptor formed by WbbY; pH 7.5, 10 mM MgCl2, 30 °C. Format: biochemical.

T1 sequence (A0A0C4KUT2 entry or part of it): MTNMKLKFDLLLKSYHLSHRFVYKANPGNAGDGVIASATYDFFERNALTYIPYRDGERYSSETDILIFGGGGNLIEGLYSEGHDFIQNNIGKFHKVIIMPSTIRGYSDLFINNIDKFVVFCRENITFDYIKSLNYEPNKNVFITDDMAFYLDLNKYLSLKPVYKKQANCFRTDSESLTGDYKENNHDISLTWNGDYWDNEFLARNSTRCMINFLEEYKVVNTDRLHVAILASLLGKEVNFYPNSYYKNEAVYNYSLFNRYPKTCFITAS

Take `C=C(OP(=O)(O)O)C(=O)O` [PEP]: the “PAGE of reaction products; MS and NMR” value was “phosphoenolpyruvate (PEP)-dependent reduction of the size of the reaction products”.

These data come from article PMC10629545, “Identification of a second glycoform of the clinically prevalent O1 antigen from Klebsiella pneumoniae” (Proceedings of the National Academy of Sciences of the …, 2023).
